Results published in US5059596A, “Azabicyclo compounds” (Roussel Uclaf, priority 1989, dated 1991).
Where two headings read alike, the source gives them in different places.

Experiments:
cyclooxygenase = assay: inhibition of eicosanoid synthesis by guinea pig peritoneal neutrophils: cyclooxygenase product (TX B2 and 5-HHT) synthesis; format: cell-based; conditions: [^14 C]-arachidonic acid and calcium ionophore
Description: (§1) The compounds were tested for their activity as inhibitors of the synthesis of eicosanoids by guinea pig peritoneal neutrophils following the addition of [^14 C]-arachidonic acid and calcium ionophore, using a modification of the method published by Harvey et al [J. Pharmacol. Methods, Vol. 9(2), p 147-155 (1983)].

5-lipoxygenase = target: T1, 5-lipoxygenase (Cavia porcellus, UniProt A0A286X958); assay: inhibition of eicosanoid synthesis by guinea pig peritoneal neutrophils: 5-lipoxygenase product (5-HETE) synthesis; format: cell-based; conditions: [^14 C]-arachidonic acid and calcium ionophore
T1 construct: synthesis of eicosanoids by guinea pig peritoneal neutrophils; endogenous in cells; host or cells: guinea pig peritoneal neutrophils
T1 sequence (A0A286X958 1-674): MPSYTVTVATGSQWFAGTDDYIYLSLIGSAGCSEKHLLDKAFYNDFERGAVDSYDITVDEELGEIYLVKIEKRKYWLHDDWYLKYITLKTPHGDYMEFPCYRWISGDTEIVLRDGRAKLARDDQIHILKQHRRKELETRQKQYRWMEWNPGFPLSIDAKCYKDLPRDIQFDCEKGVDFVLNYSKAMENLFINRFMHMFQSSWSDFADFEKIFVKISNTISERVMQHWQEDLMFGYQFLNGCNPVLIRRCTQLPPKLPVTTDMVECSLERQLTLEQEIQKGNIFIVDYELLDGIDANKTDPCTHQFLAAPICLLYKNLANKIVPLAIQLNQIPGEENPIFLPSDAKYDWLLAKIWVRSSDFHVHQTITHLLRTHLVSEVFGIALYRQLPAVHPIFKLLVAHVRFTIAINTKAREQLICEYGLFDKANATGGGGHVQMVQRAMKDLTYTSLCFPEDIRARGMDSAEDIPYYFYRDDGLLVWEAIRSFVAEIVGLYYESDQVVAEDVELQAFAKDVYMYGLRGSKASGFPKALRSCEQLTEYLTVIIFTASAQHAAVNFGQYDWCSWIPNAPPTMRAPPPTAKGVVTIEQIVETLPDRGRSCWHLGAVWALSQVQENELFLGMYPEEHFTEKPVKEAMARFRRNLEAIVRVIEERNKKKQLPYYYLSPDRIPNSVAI
Description: as §1

**Q.** How did the IC50 (cyclooxygenase; 5-HHT synthesis, read-out: IC50 (5-HHT)) turn out when `CCSC12ON=C(c3ccc(OC)cc3)N1C(C)(C)C2(C)C` (stereo not drawn) [compound 4, 3-(p-methoxyphenyl)-5,5,6,6-tetramethyl-7-ethylthio-1-oxa-2,4-diazabicyclo[3.2.0]hept-2-ene] was run?
**A.** 6.3 µM

**Q.** What about the IC50 (cyclooxygenase; TXB2 synthesis, read-out: IC50 (TXB2)) of the same molecule?
**A.** 5 µM

**Q.** What about the IC50 (5-lipoxygenase) of the same molecule?
**A.** > 100 µM
